Test results published in PMC6803055 (Journal of pharmacological and toxicological methods, 2019).
Where two headings read alike, the source gives them in different places.

Key:
Male Sprague Dawley rats [1] = test: stress-related hormones after plethysmography testing; assay type: in vivo, rat; conditions: approximately 5 hours post-dosing, 200, 500, 750 mg/kg p.o., whole-body and head-out testing
PDE6 = test: in vitro enzyme assay; assay type: biochemical; conditions: 100 μM (36 μg/mL) DSM421
rats [2] = test: original GLP respiratory study using head-out plethysmography; assay type: in vivo, rat; conditions: original head-out study, 200, 500, 750 mg/kg p.o.
Male Sprague Dawley rats [3] = test: respiratory function, whole-body plethysmography; assay type: in vivo, rat; conditions: for increase in tidal volume: throughout 5 hours post-dosing, not significant
rats [4] = test: Irwin test; assay type: in vivo, rat; conditions: oral doses of 200, 500 and 750 mg/kg
adenosine A3 receptor = target: T1, adenosine A3 receptor (Homo sapiens, UniProt P0DMS8); test: in vitro binding assay
T1 sequence (P0DMS8 1-318): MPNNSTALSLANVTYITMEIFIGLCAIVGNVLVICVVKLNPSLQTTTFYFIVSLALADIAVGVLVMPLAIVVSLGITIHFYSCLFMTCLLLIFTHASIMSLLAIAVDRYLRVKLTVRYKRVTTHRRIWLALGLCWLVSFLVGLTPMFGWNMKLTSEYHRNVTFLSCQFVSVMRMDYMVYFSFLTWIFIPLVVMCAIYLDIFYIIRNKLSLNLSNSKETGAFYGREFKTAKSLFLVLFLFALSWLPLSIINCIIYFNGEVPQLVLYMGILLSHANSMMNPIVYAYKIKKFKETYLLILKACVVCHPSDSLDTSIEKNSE

Male Sprague Dawley rats [5] = conditions: rat, in vivo, po
[6] = estimated plasma maximum concentrations in dogs; assay type: in vivo, dog
dogs = test: cardiovascular and respiratory assessment in telemetry-instrumented dogs; assay type: in vivo, dog
pharmacokinetics in rats = assay type: in vivo; conditions: rat; for plasma Cmax (mean ± S.E.M.) / Tmax (mean ± S.E.M.): n=4
[7] = target: transient receptor potential cation channel subfamily V member 1 (TRPV1) (Homo sapiens, UniProt Q8NER1); test: in vitro functional assays for agonist and antagonist effects; assay type: biochemical
PDE5 = PDE5 (Homo sapiens, UniProt O76074); test: in vitro enzyme assay; assay type: biochemical; conditions: 100 μM (36 μg/mL) DSM421
[8] = whole-body, 200 and 500 mg/kg p.o., peak at 5 hours post-dosing

Chain of transient receptor potential cation channel subfamily V member 1 (TRPV1) (Q8NER1 whole entry, species assumed): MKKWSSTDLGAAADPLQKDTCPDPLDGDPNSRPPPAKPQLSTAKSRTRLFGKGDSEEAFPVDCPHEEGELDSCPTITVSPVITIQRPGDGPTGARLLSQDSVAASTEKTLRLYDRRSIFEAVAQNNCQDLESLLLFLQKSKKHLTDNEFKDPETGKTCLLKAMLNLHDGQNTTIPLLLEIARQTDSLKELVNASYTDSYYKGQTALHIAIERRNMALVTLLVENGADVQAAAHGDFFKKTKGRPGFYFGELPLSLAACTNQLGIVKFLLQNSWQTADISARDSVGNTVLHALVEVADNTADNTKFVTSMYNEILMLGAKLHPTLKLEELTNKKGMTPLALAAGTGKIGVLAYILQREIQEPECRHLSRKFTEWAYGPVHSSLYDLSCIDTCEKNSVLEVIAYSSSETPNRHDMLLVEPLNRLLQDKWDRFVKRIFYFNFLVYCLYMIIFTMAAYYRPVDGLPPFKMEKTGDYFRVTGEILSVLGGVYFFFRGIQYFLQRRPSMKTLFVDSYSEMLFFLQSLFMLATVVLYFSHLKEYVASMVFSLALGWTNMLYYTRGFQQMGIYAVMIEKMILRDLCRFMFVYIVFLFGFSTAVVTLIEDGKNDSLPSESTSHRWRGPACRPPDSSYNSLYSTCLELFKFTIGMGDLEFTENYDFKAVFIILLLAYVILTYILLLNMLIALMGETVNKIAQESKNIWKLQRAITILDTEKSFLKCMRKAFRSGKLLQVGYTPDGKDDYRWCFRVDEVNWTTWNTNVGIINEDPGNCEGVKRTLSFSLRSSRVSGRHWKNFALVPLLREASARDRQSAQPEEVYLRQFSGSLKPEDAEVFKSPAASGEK

## Cc1cc(Nc2ccc(C(F)(F)F)nc2)n2nc(C(C)(F)F)nc2n1 [DSM421, 2-(1,1-difluoroethyl)-5-methyl-N-[6-trifluromethyl-3-pyridyl]-[1,2,4]triazolo[1,5-a]pyrimidin-7-amine]
Male Sprague Dawley rats [1]
  ACTH plasma level, effect of dose: no overall effect for dose
  aldosterone serum level, effect of dose: no overall effect for dose
  corticosterone serum level, effect of dose: overall effect for dose
PDE6
  inhibition: 72%
Rats [2]
  time after administration of death or euthanasia in extremis: 3 to 5 h
Male Sprague Dawley rats [3]; whole-body chambers, 200, 500, 750 mg/kg p.o., 5-hour post-dosing period
  clinical signs: no DSM421-related clinical signs
Male Sprague Dawley rats [3]; whole-body, 200 mg/kg p.o.
  increase in tidal volume: approximately 5%
Male Sprague Dawley rats [3]; whole-body, 500 mg/kg p.o.
  increase in tidal volume: ~6%
Male Sprague Dawley rats [3]; [8]
  mean minute volume increase: approximately 28%
  mean respiratory rate increase compared to vehicle control: 22–23%
Rats [4]
  Irwin test effects: no effects were observed
Adenosine A3 receptor; 10 μM DSM421
  inhibition of control specific binding: 40%
Adenosine A3 receptor; 100 μM (36 μg/mL) DSM421
  inhibition of control specific binding: 91%
Male Sprague Dawley rats [5]; 200 mg/kg
  changes in respiratory rate: no changes in respiratory rate
  clinical signs: no DSM421-related clinical signs
  mean minute volume increase above the control group: approximately 17%
Male Sprague Dawley rats [5]; 500 mg/kg
  animals with hypoactivity, salivation, dyspnea and/or increased body temperature: 2 of the eight animals tested
  increase in respiratory rate above controls: 5–17%
  mean minute volume increase above the control group: ~48%
Male Sprague Dawley rats [5]; 750 mg/kg
  increase in respiratory rate above controls (peak): 41–47%
  increase in tidal volume above controls (peak): 46–57%
  mean minute volume increase above controls (peak): 141%
[6]; 30 mg/kg p.o.
  estimated maximum concentration (Cmax) in plasma: 29 µg/mL
[6]; 100 mg/kg p.o.
  estimated maximum concentration (Cmax) in plasma: 69 µg/mL
dogs; 100 mg/kg p.o.
  clinical observation: emesis
  increase in minute volume: 4- to 5 fold
  increase in respiratory rate: 4- to 5 fold
dogs; 30 and 100 mg/kg p.o.
  cardiovascular function (heart rate, blood pressure, and ECG): no effects
  tidal volume: no effects
dogs; p.o.
  no-observed-effect level (NOEL): 30 mg/kg
Pharmacokinetics in rats; 200 mg/kg p.o.
  plasma Cmax (mean ± S.E.M.): 49 µg/mL
Pharmacokinetics in rats; 500 mg/kg p.o.
  Tmax (mean ± S.E.M.): 18 ± 3.5 h
  plasma Cmax (mean ± S.E.M.): 73 µg/mL
Pharmacokinetics in rats; 750 mg/kg p.o. (high dose)
  plasma level by 6 days after dosing relative to LLOQ (0.005 μg/mL): only slightly greater than that
Pharmacokinetics in rats; 750 mg/kg p.o.
  Tmax (mean ± S.E.M.): 27 ± 7.5 h
  plasma Cmax (mean ± S.E.M.): 97 µg/mL
[7]; 100 μM DSM421, agonist mode
  agonist effect (percent of control agonist response): 26%
[7]; 100 μM DSM421, antagonist mode
  antagonist effect: no effect
PDE5
  inhibition: 59%
